For one assay, the system named is T. cruzi. The note with it: infected rats; BZ parasite-induced, PBN oxidative stress-induced (Wen et al. 2006, 2010); cited from earlier work.
The nature of assay [1]: 2D-GE plasma proteome profile (differential protein expression) of T. cruzi-infected rats treated with PBN and/or BZ. The class given is in vivo, rat. The note with it: plasma. From the text:
Certain embodiments include biomarkers identified in a previous study. Parasite persistence and oxidative damage in the heart are known to be of pathological significance during Chagas disease (Zacks et al., (2005) An Acad Bras Cienc, 77, 695-715; Gupta et al., (2009) Interdiscip Perspect Infect Dis, 2009, 190354). […] In the previous study the inventors identified 92 proteins that were differentially expressed or oxidized in chagasic plasma. Functional analysis allocated a majority of these proteins to inflammation/immunity and lipid metabolism categories, and to molecular pathways associated with cardiovascular dysfunction, e.g., myocardial infarction, hypertrophy, and fibrosis, and pulmonary embolism and hypertension. Some proteins in chagasic rats treated with PBN and/or BZ were allocated to curative pathways (immune regulation and cardiac remodeling). The 2D-GE results were validated by Western blotting. […] Increased plasma levels of GSN, MYL2, and VIM were directly correlated with the severity of cardiac disease in human chagasic patients. […] These findings have utility in diagnosing disease severity and designing suitable therapy for management of human chagasic patients.
Ingenuity Pathway Analysis (IPA) is a highly curated and comprehensive software used for the integration of proteins into networks and pathways with biological meaning (Thomas and Bonchev, (2010). Hum Genomics, 4, 353-360). Network analysis of the plasma proteome profile of chagasic rats identified four major sub-networks linked to host response to T. cruzi infection and disease development (Table V). The maximal numbers of the differentially expressed plasma proteins (19 proteins) in chagasic rats were associated with antigen presentation and inflammatory response category (Table V) and indicators of persistent inflammation, known to be of pathological significance in Chagas disease (Dhiman et al., (2009) Clinical and Vaccine Immunology, 16, 660-666; Tanowitz et al., (2009) Prog Cardiovasc Dis, 51, 524-539; Junqueira et al., (2010) Expert Rev Mol Med, 12, e29). Following functional analysis of the inflammation-associated proteins, 12 proteins (APOA1, APOE, C3, CFB, CFH, FGB, GSN, KRT10, PLG, SCG2, SERPINA1, and SERPINC1) were identified as being involved in immune cell trafficking and cell movement of leukocytes, granulocytes, phagocytes, neutrophils, and dendritic and antigen presenting cells. Some of the differentially expressed proteins in inflammation category were associated with activation (APOE, C3, CFH, GC and PLG), chemotaxis (C3, SCG2, SERPINA1, SERPINC1), and infiltration of leukocytes (APOA1, APOE, C3, PLG, KRT10) and neutrophils (C3, CFB, CFH, PLG). Up regulation of APOE, APOA1, APOH, GC and PLG in chagasic plasma was indicative of activation, binding and accumulation of macrophages in the disease state. Of the 19 differentially expressed inflammation-associated proteins, 11 proteins (APOE, C3, CFB, CFH, GSN, KRT10, SCG2, SERPINA1, SERPINC1, GC, and PLG) were carbonylated in chagasic plasma. […] Other proteins (APOE, C3, KRT3, and SCG2) were exposed to oxidation due to T. cruzi-induced, acute oxidative stress, but were normalized in expression and oxidation during the chronic phase.
Seventeen of the differentially expressed proteins in chagasic plasma, i.e., AFM, C4BPA, CACNA1D, DLGAP2, GC, KNG1, MUG1, MYLPF, MY05A, MY05B, PRPH, PZP, RAI14, and SCG2, were allotted to the lipid metabolism/molecular transport/small molecule biochemistry category (Table V) and functionally linked by IPA network analysis to lipid, fatty acid, and carbohydrate metabolism. A majority of the proteins in this category, i.e., ALB, APOA1, APOA4, APOE, APOH, C3, GC, GNAQ, MY05A, PLG, SCD2, SERPINA1, SERPINC1 and VIM, were linked to the synthesis, metabolism, transport, and modification of lipids and fatty acids, and to uptake and release or efflux of lipids, eicosanoids, and cholesterol. […]

The text below walks through data of patent publication US9696323B2, “Biomarkers for chagas disease related cardiomyopathy” (THE BOARD OF REGENTS OF THE UNIVERSITY OF TEXAS SYSTEM, priority 2013, dated 2017).

Molecules are shown by their SMILES.

Take `CC(C)(C)/[N+]([O-])=C/c1ccccc1` [PBN]: the “controlling parasite- and oxidative stress-induced pathology” value in the assay with T. cruzi is “beneficial effects”. Further, the “Spot# 106 Average Normalized Density × 100,000” value in assay [1] (RAP group (acute infection)) amounted to 1.70; in assay [1] (RCP/RCB/RCPB groups (chronic infection)), 6.94.
